In patent EP0584797A2, “Novel cephalosporin compounds and processes for the preparation thereof” (LUCKY LTD., priority 1992, dated 1994):
Converted amounts (≈) assume the structure as drawn.

Columns and labels:
Experiment in all cases: minimal inhibitory concentration, two-fold agar dilution
Type in all cases: cell-based
[1] = test system: Pseudomonas aeruginosa ATCC 27853; details: ATCC27853, Muller-Hinton agar, 37°C, 20 hours, read-out: MIC values against the standard strains
Description: (§1) These MIC values were taken by employing a two-fold dilution method: that is, two-fold serial dilutions of each of the test compounds were made and dispersed in a Muller-Hinton agar medium; 2µl of the standard test strain which had the 10⁷ CFU(Colony Forming Unit) per ml was inoculated on the medium; and these were incubated at 37°C for 20 hours.

[2] = test system: Serratia marcescens ATCC 27117; details: ATCC27117, Muller-Hinton agar, 37°C, 20 hours, read-out: MIC values against the standard strains
Description: as §1

[3] = test system: Shigella sonnei ATCC 11060; details: ATCC11060, Muller-Hinton agar, 37°C, 20 hours, read-out: MIC values against the standard strains
Description: as §1

[4] = test system: Shigella flexneri ATCC 11836; details: ATCC11836, Muller-Hinton agar, 37°C, 20 hours, read-out: MIC values against the standard strains
Description: as §1

[5] = test system: Staphylococcus epidermidis ATCC 12228; details: ATCC12228, Muller-Hinton agar, 37°C, 20 hours, read-out: MIC values against the standard strains
Description: as §1

[6] = test system: Acinetobacter calcoaceticus ATCC 15473; details: ATCC15473, Muller-Hinton agar, 37°C, 20 hours, read-out: MIC values against the standard strains
Description: as §1

[7] = test system: Enterobacter aerogenes ATCC 29751; details: Klebsiella aerogenes, ATCC29751; Muller-Hinton agar; 37°C; 20 hours; read-out: MIC values against the standard strains
Description: as §1

[8] = test system: Morganella morganii ATCC 8076h; details: ATCC8076H, Muller-Hinton agar, 37°C, 20 hours, read-out: MIC values against the standard strains
Description: as §1

[9] = test system: Pseudomonas aeruginosa ATCC 10145; details: ATCC10145, Muller-Hinton agar, 37°C, 20 hours, read-out: MIC values against the standard strains
Description: as §1

[10] = test system: Staphylococcus aureus ATCC 6538p; details: ATCC6538P, Muller-Hinton agar, 37°C, 20 hours, read-out: MIC values against the standard strains
Description: as §1

[11] = test system: Streptococcus faecalis ATCC 29212; details: Enterococcus faecalis, ATCC29212; Muller-Hinton agar; 37°C; 20 hours; read-out: MIC values against the standard strains
Description: as §1

[12] = test system: Bacillus cereus ATCC 11778; details: ATCC11778, Muller-Hinton agar, 37°C, 20 hours, read-out: MIC values against the standard strains
Description: as §1

[13] = test system: Citrobacter freundii ATCC 8090; details: ATCC8090, Muller-Hinton agar, 37°C, 20 hours, read-out: MIC values against the standard strains
Description: as §1

[14] = test system: Escherichia coli ATCC 10536; details: ATCC10536, Muller-Hinton agar, 37°C, 20 hours, read-out: MIC values against the standard strains
Description: as §1

[15] = test system: Staphylococcus aureus ATCC 10537; details: ATCC10537, Muller-Hinton agar, 37°C, 20 hours, read-out: MIC values against the standard strains
Description: as §1

[16] = test system: Enterobacter cloacae ATCC 27508; details: ATCC27508, Muller-Hinton agar, 37°C, 20 hours, read-out: MIC values against the standard strains
Description: as §1

[17] = test system: Proteus vulgaris ATCC 6059; details: ATCC6059, Muller-Hinton agar, 37°C, 20 hours, read-out: MIC values against the standard strains
Description: as §1

[18] = test system: Micrococcus luteus ATCC 9341; details: ATCC9341, Muller-Hinton agar, 37°C, 20 hours, read-out: MIC values against the standard strains
Description: as §1

[19] = test system: Bacillus megaterium ATCC 9885; details: Priestia megaterium, ATCC9885; Muller-Hinton agar; 37°C; 20 hours; read-out: MIC values against the standard strains
Description: as §1

[20] = test system: Providencia rettgeri ATCC 9250; details: ATCC9250, Muller-Hinton agar, 37°C, 20 hours, read-out: MIC values against the standard strains
Description: as §1

[21] = test system: Proteus mirabilis ATCC 25933; details: ATCC25933, Muller-Hinton agar, 37°C, 20 hours, read-out: MIC values against the standard strains
Description: as §1

[22] = test system: Salmonella typhimurium ATCC 14028; details: Salmonella enterica; Muller-Hinton agar; 37°C; 20 hours; read-out: MIC values against the standard strains
Description: as §1

[23] = test system: Escherichia coli ATCC 25922; details: ATCC25922, Muller-Hinton agar, 37°C, 20 hours, read-out: MIC values against the standard strains
Description: as §1

[24] = test system: Klebsiella pneumoniae ATCC 10031; details: ATCC10031, Muller-Hinton agar, 37°C, 20 hours, read-out: MIC values against the standard strains
Description: as §1

[25] = test system: Pseudomonas aeruginosa ATCC 25619; details: ATCC25619, Muller-Hinton agar, 37°C, 20 hours, read-out: MIC values against the standard strains
Description: as §1

| Structure (SMILES) | MIC [1] [µg/mL] | MIC [2] [µg/mL] | MIC [3] [µg/mL] | MIC [4] [µg/mL] | MIC [5] [µg/mL] | MIC [6] [µg/mL] | MIC [7] [µg/mL] | MIC [8] [µg/mL] | MIC [9] [µg/mL] | MIC [10] [µg/mL] | MIC [11] [µg/mL] | MIC [12] [µg/mL] | MIC [13] [µg/mL] | MIC [14] [µg/mL] | MIC [15] [µg/mL] | MIC [16] [µg/mL] | MIC [17] [µg/mL] | MIC [18] [µg/mL] | MIC [19] [µg/mL] | MIC [20] [µg/mL] | also measured |
| --- | --- | --- | --- | --- | --- | --- | --- | --- | --- | --- | --- | --- | --- | --- | --- | --- | --- | --- | --- | --- | --- |
| Nc1cc[n+](N)c(SCC2=C(C(=O)[O-])N3C(=O)[C@@H](NC(=O)/C(=N\OCC(=O)O)c4csc(N)n4)[C@H]3SC2)n1 [Example 75, 7-[(Z)-2-(2-aminothiazol-4-yl)-2-(carboxymethoxyimino)acetamido]-3-(1,4-diaminopyrimidinium-2-yl)thiomethyl-3-cephem-4-carboxylate] | 4 (≈ 6.88 µM) | 0.031 (≈ 0.0533 µM) | 0.016 (≈ 0.0275 µM) | 0.016 (≈ 0.0275 µM) | 4 (≈ 6.88 µM) | 4 (≈ 6.88 µM) | 0.5 (≈ 0.86 µM) | ≤ 0.008 | 8 (≈ 13.8 µM) | 8 (≈ 13.8 µM) | > 128 | 128 (≈ 220 µM) | 0.031 (≈ 0.0533 µM) | 0.016 (≈ 0.0275 µM) | 4 (≈ 6.88 µM) | ≤ 0.008 | 0.031 (≈ 0.0533 µM) | 2 (≈ 3.44 µM) | 0.5 (≈ 0.86 µM) | ≤ 0.008 | MIC [21]: 0.063 µg/mL (≈ 0.108 µM); MIC [22]: 0.063 µg/mL (≈ 0.108 µM); MIC [23]: 0.016 µg/mL (≈ 0.0275 µM); MIC [24]: 0.016 µg/mL (≈ 0.0275 µM); MIC [25]: 4 µg/mL (≈ 6.88 µM) |
| CCO/N=C(\C(=O)N[C@@H]1C(=O)N2C(C(=O)[O-])=C(CSc3nc(N)c4ccoc4[n+]3C)CS[C@H]12)c1csc(N)n1 [Example 33, 7-[(Z)-2-(2-aminothiazol-4-yl)-2-(ethoxyimino)acetamido]-3-(4-amino-1-methylfuro-[5,6,e]pyrimidinium-2-yl)thiomethyl-3-cephem-4-carboxylate] | 8 (≈ 13.5 µM) | 0.5 (≈ 0.846 µM) | 0.13 (≈ 0.22 µM) | 0.063 (≈ 0.107 µM) | 0.13 (≈ 0.22 µM) | 8 (≈ 13.5 µM) | 0.5 (≈ 0.846 µM) | ≤ 0.008 | 16 (≈ 27.1 µM) | 0.25 (≈ 0.423 µM) | 8 (≈ 13.5 µM) | 32 (≈ 54.2 µM) | 0.063 (≈ 0.107 µM) | 0.063 (≈ 0.107 µM) | 0.25 (≈ 0.423 µM) | ≤ 0.008 | 0.25 (≈ 0.423 µM) | 0.031 (≈ 0.0525 µM) | 0.063 (≈ 0.107 µM) | ≤ 0.008 | MIC [21]: 0.5 µg/mL (≈ 0.846 µM); MIC [22]: 0.5 µg/mL (≈ 0.846 µM); MIC [23]: 0.063 µg/mL (≈ 0.107 µM); MIC [24]: ≤ 0.008 µg/mL; MIC [25]: 0.5 µg/mL (≈ 0.846 µM) |
| CCO/N=C(\C(=O)N[C@@H]1C(=O)N2C(C(=O)[O-])=C(CSc3nc(N)c4ccccc4[n+]3C)CS[C@H]12)c1csc(N)n1 [Example 29, 7-[(Z)-2-(2-aminothiazol-4-yl)-2-(ethoxyimino)acetamido]-3-(4-amino-1-methylbenzo-[5,6,e]pyrimidinium-2-yl)thiomethyl-3-cephem-4-carboxylate] | 16 (≈ 26.6 µM) | 0.5 (≈ 0.832 µM) | 0.25 (≈ 0.416 µM) | 0.063 (≈ 0.105 µM) | 0.031 (≈ 0.0516 µM) | 16 (≈ 26.6 µM) | 0.25 (≈ 0.416 µM) | ≤ 0.008 | 16 (≈ 26.6 µM) | 0.13 (≈ 0.216 µM) | 16 (≈ 26.6 µM) | 16 (≈ 26.6 µM) | 0.13 (≈ 0.216 µM) | 0.13 (≈ 0.216 µM) | 0.13 (≈ 0.216 µM) | ≤ 0.008 | 0.5 (≈ 0.832 µM) | 0.016 (≈ 0.0266 µM) | 0.063 (≈ 0.105 µM) | ≤ 0.008 | MIC [21]: 0.5 µg/mL (≈ 0.832 µM); MIC [22]: 0.5 µg/mL (≈ 0.832 µM); MIC [23]: 0.13 µg/mL (≈ 0.216 µM); MIC [24]: ≤ 0.008 µg/mL; MIC [25]: 4 µg/mL (≈ 6.66 µM) |
| C[n+]1c(SCC2=C(C(=O)[O-])N3C(=O)[C@@H](NC(=O)/C(=N\OC(C)(C)C(=O)O)c4csc(N)n4)[C@H]3SC2)nc(N)c2ccoc21 [Example 32, 7-[(Z)-2-(2-aminothiazol-4-yl)-2-(carboxyprop-2-oxyimino)acetamido]-3-(4-amino-1-methylfuro[5,6,e]pyrimidinium-2-yl-)thiomethyl-3-cephem-4-carboxylate] | 2 (≈ 3.08 µM) | 0.25 (≈ 0.385 µM) | 0.13 (≈ 0.2 µM) | 0.031 (≈ 0.0478 µM) | 2 (≈ 3.08 µM) | 8 (≈ 12.3 µM) | 2 (≈ 3.08 µM) | ≤ 0.008 | 4 (≈ 6.17 µM) | 4 (≈ 6.17 µM) | > 128 | 128 (≈ 197 µM) | 0.13 (≈ 0.2 µM) | 0.063 (≈ 0.0971 µM) | 2 (≈ 3.08 µM) | 0.016 (≈ 0.0247 µM) | 0.13 (≈ 0.2 µM) | 0.25 (≈ 0.385 µM) | 0.13 (≈ 0.2 µM) | ≤ 0.008 | MIC [21]: 0.13 µg/mL (≈ 0.2 µM); MIC [22]: 0.25 µg/mL (≈ 0.385 µM); MIC [23]: 0.063 µg/mL (≈ 0.0971 µM); MIC [24]: 0.016 µg/mL (≈ 0.0247 µM); MIC [25]: 1 µg/mL (≈ 1.54 µM) |
